According to ChEMBL document CHEMBL4414614, “Phthalideisoquinoline Hemiacetal Alkaloids from Corydalis decumbens That Inhibit Spontaneous Calcium Oscillations, Including Alkyl Derivatives of (+)-Egenine That Are Strikingly Levorotatory” (J Nat Prod, 2019):

Key:
Format in all cases: functional
[1] = (§1) Inhibition of neuronal excitability in C57BL/6 mouse Neocortical neurons assessed as reduction in spontaneous calcium oscillation amplitude measured for 10 mins by Fluo-4 staining based FLIPR assay; conditions: C57BL/6, 10 min
Mus musculus [2] = species: Mus musculus; experiment: as §1
[3] = (§2) Inhibition of neuronal excitability in C57BL/6 mouse Neocortical neurons assessed as effect on spontaneous calcium oscillation frequency measured for 10 mins by Fluo-4 staining based FLIPR assay; conditions: C57BL/6, 10 min
Mus musculus [4] = species: Mus musculus; experiment: as §2

| Compound | IC50 [1] | inhibition (Mus musculus [2]) | IC50 [3] | inhibition (Mus musculus [4]) |
| --- | --- | --- | --- | --- |
| CCO[C@@H]1O[C@@H]([C@@H]2c3cc(OC)c(OC)cc3CCN2C)c2ccc3c(c21)OCO3 | 10.2 µM | Dose-dependent effect | 10.2 µM | Dose-dependent effect |
| CCO[C@@H]1O[C@@H]([C@@H]2c3cc4c(cc3CCN2C)OCO4)c2ccc3c(c21)OCO3 | 3.1 µM | Dose-dependent effect | 3.1 µM | Dose-dependent effect |
| CO[C@H]1O[C@@H]([C@@H]2c3cc4c(cc3CCN2C)OCO4)c2ccc3c(c21)OCO3 | 6.8 µM | Dose-dependent effect | 6.8 µM | Dose-dependent effect |
| CCO[C@H]1O[C@@H]([C@@H]2c3cc4c(cc3CCN2C)OCO4)c2ccc3c(c21)OCO3 | 8.3 µM | Dose-dependent effect | 8.3 µM | Dose-dependent effect |
| CO[C@@H]1O[C@@H]([C@@H]2c3cc4c(cc3CCN2C)OCO4)c2ccc3c(c21)OCO3 | 5.6 µM | Dose-dependent effect | 5.6 µM | Dose-dependent effect |
| COc1cc2c(cc1OC)[C@@H]([C@@H]1O[C@H](O)c3c1ccc1c3OCO1)N(C)CC2 | 11.6 µM | Dose-dependent effect | 11.6 µM | Dose-dependent effect |
